Reference: patent US8247579B2, “Spirocyclic tetronic acid derivatives” (Bayer Cropscience AG, priority 2007, dated 2012)

Experiments:
[1] = Determination of the logP values by HPLC (EEC Directive 79/831 Annex V.A8); assay type: physicochemical; details: reversed-phase C18 HPLC column, reversed-phase C18, 43° C., acidic range (pH 2.3)
Description: Determination of the LogP Values The logP values given in the table were determined in accordance with EEC Directive 79/831 Annex V .A8 by HPLC (High Performance Liquid Chromatography) on a reversed-phase column (C18). Temperature: 43° C. Mobile phases for the determination in the acidic range (pH 2.3): 0.1% aqueous phosphoric acid, acetonitrile; linear gradient from 10% acetonitrile to 90% acetonitrile The calibration was carried out using unbranched alkan-2-ones (having 3 to 16 carbon atoms) with known logP values (determination of the logP values by the retention times using linear interpolation between two successive alkanones).

[2] = test system: mixed thrips population (Frankliniella occidentalis); assay: Frankliniella occidentalis (FRANOC spray treatment); assay type: in vivo; details: bean leaf disks
Description: Frankliniella occidentalis (FRANOC Spray Treatment)
If addition of ammonium salts is required, these are added by pipette in a concentration of 1000 ppm after dilution of the respective finished solution of the preparation.

[3] = test system: larvae of the mustard beetle (Phaedon cochleariae); assay: Phaedon test (PHAECO spray treatment); details: application rate of 100 g/ha, Chinese cabbage discs
[4] = test system: Tetranychus urticae, resistant; assay: Tetranychus urticae (TETRUR RAUS) spray test, resistant mites on bush bean plants; assay type: in vivo; details: concentration of 5 ppm, spraying
Description: Tetranychus urticae (TETRUR RAUS)
Bush bean plants (Phaseolus vulgaris) infested with a mixed population of resistant greenhouse red spider mites (Tetranychus urticae, resistant) are treated by spraying with the active compound preparation of the desired concentration.
(§1) After the desired period of time, the kill in % is determined.

[5] = test system: Green peach aphid (Myzus persicae); assay: Myzus persicae test (MYZUPE), dip treatment of cabbage leaves; assay type: in vivo; details: 100 ppm
Description: Myzus persicae Test (MYZUPE)
(§2) If addition of ammonium salts, penetrants or ammonium salts and penetrants is required, these are added by pipette in a concentration of 1000 ppm after dilution of the respective finished solution of the preparation.
Cabbage leaves (Brassica oleracea) which are heavily infested by the Green peach aphid (Myzus persicae) are treated by being dipped into the active compound preparation of the desired concentration.
as §1

[6] = test system: greenhouse red spider mite (Tetranychus urticae sensitive); assay: Tetranychus test, OP-resistant/dip treatment (TETRUR); assay type: in vivo; details: dip
Description: Tetranychus Test, OP-Resistant/Dip Treatment (TETRUR)
as §2

SMILES | chromatographic logP [1] | effect in % (thrips killed) ([2]; application rate of 500 g/ha) [%] | effect in % (thrips killed) ([2]; application rate of 100 g/ha) [%] | effect in % (beetle larvae killed) [3] [%] | kill in % [4] [%] | MYZUPE % 6 d (kill in %) [5] [%] | TETRUR % 7 d (effect in %) ([6]; 0.78125 ppm) [%] | TETRUR % 7 d (effect in %) ([6]; 1.5625 ppm) [%] | TETRUR % 7 d (effect in %) ([6]; 3.125 ppm) [%]
Cc1cc(C)c(C2=C(OC(=O)CC34CC5CC(CC(C5)C3)C4)C3(CCCC3)OC2=O)c(C)c1 [Example I-1] | 6.94 | 80 |  |  |  |  |  |  | 
Cc1cc(C)c(C2=C(OC(=O)CC3(C)OCCO3)C3(CCCC3)OC2=O)c(C)c1 [Example I-2] | 3.85 |  | 63 | 67 |  |  |  |  | 
CCC(C)(C)CC(=O)OC1=C(c2c(C)cc(C)cc2C)C(=O)OC12CCCC2 [Example I-3] |  |  |  |  | 97 |  |  |  | 
COC(C)(C)CC(=O)OC1=C(c2c(C)cc(C)cc2C)C(=O)OC12CCCC2 [Example I-5] | 4.45 |  |  |  |  | 55 | 30 | 50 | 90
Cc1cc(C)c(C2=C(OC(=O)CC(C)(C)C)C3(CCCC3)OC2=O)c(C)c1 [spiromesifen, reference compound] |  | 0 | 0 | 33 | 30 | 30 | 0 | 30 | 50
